Measured values taken from PubChem BioAssay (NCI).
Several values for one entry are separate records, joined by “and”; a condition that tells them apart may be missing. Equal entries are not always repeated.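 Grown in 96-well plates, cells were treated for 48 hours with each compound at five concentrations. Insufficient inhibition: endpoint recorded as highest concentration tested. The concentration for 50% growth inhibition is given as GI50. TGI: total growth inhibition.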

Experiments:
Experiment in all cases: NCI-60 cell line screen, 48 h
OVCAR-3 ovarian = test system: OVCAR-3 ovarian
RXF 393 renal = test system: RXF 393 renal
HCC-2998 colon = test system: HCC-2998 colon
SK-OV-3 ovarian = test system: SK-OV-3 ovarian
SK-MEL-28 melanoma = test system: SK-MEL-28 melanoma
MDA-MB-231 breast = test system: MDA-MB-231 breast
UACC-62 melanoma = test system: UACC-62 melanoma
SK-MEL-5 melanoma = test system: SK-MEL-5 melanoma
M14 melanoma = test system: M14 melanoma
A549 NSCLC = test system: A549 NSCLC

Structure (SMILES) | GI50 (OVCAR-3 ovarian) | TGI (OVCAR-3 ovarian) | GI50 (RXF 393 renal) | TGI (RXF 393 renal) | GI50 (HCC-2998 colon) | TGI (HCC-2998 colon) | GI50 (SK-OV-3 ovarian) | TGI (SK-OV-3 ovarian) | GI50 (SK-MEL-28 melanoma) | TGI (SK-MEL-28 melanoma) | GI50 (MDA-MB-231 breast) | TGI (MDA-MB-231 breast) | GI50 (UACC-62 melanoma) | TGI (UACC-62 melanoma) | GI50 (SK-MEL-5 melanoma) | TGI (SK-MEL-5 melanoma) | GI50 (M14 melanoma) | TGI (M14 melanoma) | GI50 (A549 NSCLC) | TGI (A549 NSCLC)
COC(=O)c1cc(/C=C/c2ccc(S(N)(=O)=O)cc2)ccc1O | 16.5 µM | 62.7 µM | 43.4 µM | > 100 µM | 18 µM | 39.7 µM | > 100 µM | > 100 µM | 95.5 µM | > 100 µM | 24.9 µM | 60.5 µM | 25.6 µM | 66 µM | 14.5 µM | 35.5 µM | 35.3 µM | > 100 µM | 29.6 µM | > 100 µM
C[C@]12CC[C@@H]3c4ccc(O)c([N+](=O)[O-])c4CC[C@H]3[C@@H]1CC[C@@H]2NS(=O)(=O)c1cccc(Br)c1 | 2.43 µM | 5.64 µM | 2.03 µM | 4.21 µM | 2.06 µM | 3.97 µM | 2.94 µM | 7.53 µM | 1.85 µM | 3.67 µM | 1.85 µM | 4.14 µM | 1.6 µM | 3.69 µM | 1.67 µM | 3.11 µM | 1.91 µM | 4.11 µM | 2.81 µM | 8.89 µM
CC1C(=O)OC2CC[N+]3([O-])CC=C(COC(=O)C(C)(O)C1(C)O)C23 (stereo not given) | – | > 100 µM | – | > 100 µM | – | > 100 µM | – | > 100 µM | – | > 100 µM | – | > 100 µM | – | > 100 µM | – | > 100 µM | – | > 100 µM | – | > 100 µM
O/C(=C\c1nc2ccccc2nc1NC12CC3CC(CC(C3)C1)C2)c1ccc(Br)cc1 | – | > 10 µM | – | > 10 µM | – | > 10 µM | – | > 10 µM | – | > 10 µM | – | > 10 µM | – | > 10 µM | – | > 10 µM | – | > 10 µM | – | > 10 µM
O=C(Nc1ccc(Cl)c(Cl)c1)Nc1ccccc1O | 3.24 µM | 13.5 µM | 15 µM | 35.6 µM | 5.56 µM | 19.6 µM | 16 µM | 40.8 µM | 12.5 µM | 27.3 µM | 10 µM | 34.2 µM | 5.12 µM | 19.8 µM | 7.71 µM | 20.5 µM | 17.7 µM | 61.9 µM | 6.23 µM | 22.5 µM
C[C@H]1CCC/C=C/[C@@H]2C[C@H](O)C[C@H]2[C@H](O)[C@@H](SCC(O)CO)CC(=O)O1 (stereo not given in full) | 22.3 µM | 63.3 µM | 4.42 µM | 20.1 µM | 14.3 µM | 42.2 µM | 34.7 µM | > 100 µM | 13.3 µM | > 100 µM | 12.1 µM | 28.1 µM | 16.3 µM | 82.2 µM | 6.3 µM | 19.5 µM | 12.4 µM | > 100 µM | 34.4 µM | > 100 µM
CCCCCCCCCCCCOC1C(C(CC(=O)NCCN2CCCC2)NS(=O)(=O)c2cc(Cl)cc(Cl)c2)OC2OC(C)(C)OC21 (stereo not given) | 1.87 µM | 3.72 µM | 2.2 µM | 4.72 µM | 2.14 µM | 4.56 µM | 2.08 µM and 1.32 µM | 3.79 µM and 2.73 µM | 1.94 µM and 1.59 µM | 3.55 µM and 3.1 µM | 1.81 µM | 3.23 µM | 1.85 µM | 3.3 µM | 1.81 µM | 3.27 µM | 1.71 µM | 3.45 µM | 2.5 µM | 6.41 µM
Cc1cc2c(nn1)-c1ccccc1C2=O | – | > 10 µM | – | > 10 µM | – | > 10 µM | – | > 10 µM | – | > 10 µM | – | > 10 µM | – | > 10 µM | – | > 10 µM | – | > 10 µM | – | > 10 µM
CC(O)CC(O)(C(F)(F)F)C(F)(F)F (stereo not given) | – | > 10 µM | – | > 10 µM | – | > 10 µM | – | > 10 µM | – | > 10 µM | – | > 10 µM | – | > 10 µM | – | > 10 µM | – | > 10 µM | – | > 10 µM
CCN(CC)CCNc1ccc2ncn3c4cc(OC)c(OC)c(=O)c4c(O)c1c23 | – | 31.7 µM | – | 6.26 µM | – | 23.2 µM | – | 28.8 µM | – | 27.5 µM | – | 20.7 µM | – | 36.6 µM | – | 29.8 µM | – | 30.3 µM | – | 35.1 µM
